Data set [1] is described as follows: Rodent brain penetration study. The note with it: male, Wistar, rat, 3 mg/kg, oral (gavage), read-out: Single dose Brain Penetration (Cb/Cp). Type of data set: in vivo, Male Wistar rats. How it is done: Male Wistar rats (225±25 grams) were used as experimental animals. Three animals were housed in each cage. Animals were given water and food ad libitum throughout the experiment and maintained on a 12 hours light/dark cycle. Brain penetration was determined in discrete manner in rats. One day prior to dosing day, male wistar rats (225-250 grams) were acclimatized. After acclimatization the rats were grouped according to their weight. In each group, 3 animals were kept in individual cage and allowed free access to food and water. At each time point (0.50, 1 and 2 hours) n=3 animals were used. The test compounds were suitably preformulated and administered orally at (free base equivalent) 3 mg/kg. Blood samples were removed via, cardiac puncture by using isoflurane anesthesia. The animals were sacrificed to collect brain tissue. Plasma was separated and brain samples were homogenized and stored frozen at −20° C. until analysis. The concentrations of the test compounds in plasma and brain were determined using LC-MS/MS method. The test compounds were quantified in plasma and brain homogenate by qualified LC-MS/MS method using suitable extraction technique. The test compounds were quantified in the calibration range of 1-500 ng/mL in plasma and brain homogenate. Study samples were analyzed using calibration samples in the batch and quality control samples spread across the batch. Extent of brain-plasma ratio was calculated (Cb/Cp).

Data set [2] has as its target T1, hERG (Homo sapiens, UniProt Q12809).
T1 construct: expressed in transfected cells; host or cells: HEK293 (hERG-HEK293)
Put plainly: Automated hERG patch clamp assay. Type of data set: cell-based. The following applies: hERG-HEK293 cells, whole cell patch clamp. The protocol:
To study the cardiac safety of test compounds using automated hERG patch clamp assay, hERG-HEK293 cells were grown to 70% confluency and were harvested using accumax. The cells were then suspended in complete media and were incubated at 37° C. and 5% CO2 for 30 minutes before using these cells for the whole cell patch clamp assay. Whole cell patch clamp recordings were conducted on Nanion's Patchliner using I-V protocol of voltage step from holding potential of −80 mV to +40 mV for 500 ms and then to test potential for 500 ms and back to holding potential of −80 mV. Pulses were elicited every 10 seconds. Each test compound concentration was incubated for 5 minutes. Data analysis was done by plotting the raw data using Igor Pro software and IC50 values were calculated. Cells with resistance >1 Gohms and tail currents of >200 pA were taken into consideration for data analysis. Quinidine was used as positive control.
(hERG is a cardiac potassium channel; its block is linked to QT prolongation.)

Data set [3] deals with T2, recombinant human 5-HT4 receptor (Homo sapiens, UniProt Q13639).
T2 construct: expressed in transfected cells
T2 sequence (Q13639 whole entry): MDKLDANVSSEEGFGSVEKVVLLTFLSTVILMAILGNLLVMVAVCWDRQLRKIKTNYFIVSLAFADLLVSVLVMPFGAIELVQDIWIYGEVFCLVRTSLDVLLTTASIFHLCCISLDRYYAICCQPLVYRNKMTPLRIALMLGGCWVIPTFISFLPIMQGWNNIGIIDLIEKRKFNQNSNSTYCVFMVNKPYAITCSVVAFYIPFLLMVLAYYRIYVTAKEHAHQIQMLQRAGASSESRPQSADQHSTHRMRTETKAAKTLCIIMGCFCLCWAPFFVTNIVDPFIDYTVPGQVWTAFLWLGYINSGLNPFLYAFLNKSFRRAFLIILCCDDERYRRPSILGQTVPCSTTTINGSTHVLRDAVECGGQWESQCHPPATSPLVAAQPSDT
The data set can be described thus: Determination of EC50 values for 5-HT4 receptor (CHO cells, pCRE-Luc reporter). It counts as cell-based. The note with it: luciferase reporter, 4 hours incubation, read-out: 5-HT4 receptor agonistic binding in-vitro EC50. The protocol:
A stable CHO cell line expressing recombinant human 5-HT4 receptor and pCRE-Luc reporter system was used for cell-based assay. The assay offers a non-radioactive based approach to determine binding of a compound to GPCRs. In this specific assay, the level of intracellular cyclic AMP, which is modulated by activation, or inhibition of the receptor is measured. The recombinant cells harbor luciferase reporter gene under the control of cAMP response element.
The above cells were grown in 96 well clear bottom white plates in Hams F12 medium containing 10% fetal bovine serum (FBS). Prior to the addition of compounds or standard agonist, cells were serum starved overnight. Increasing concentrations of test compounds were added in OptiMEM medium to the cells. The incubation was continued at 37° C. in CO2 incubator for 4 hours. Medium was removed and cells were washed with phosphate buffered saline. The cells were lysed and luciferase activity was measured in a Luminometer. Luminescence units were plotted against the compound concentrations using Graphpad software. EC50 values of the compounds were defined as the concentration required in stimulating the luciferase activity by 50%.

Data set [4] can be described thus: Rodent pharmacokinetic study. The following applies: male, Wistar, plasma, rat; for bioavailability: 3 mg/kg oral vs 1 mg/kg intravenous. It counts as in vivo, Male wistar rats. How it is done: Male wistar rats (225±25 grams) were used as experimental animals. Three to five animals were housed in each cage. Two days prior to dosing day, male wistar rats (225-250 grams) were anesthetized with isoflurane for surgical placement of jugular vein catheter. Animals were fasted overnight before oral dosing (p.o) and food pellets were allowed 2 hours post dosing, whereas during intravenous dosing food and water were provided as ad libitum. Three rats were dosed with test compounds (3 mg/kg) orally and intravenously (1 mg/kg).
At each time point blood was collected through jugular vein and immediately replenish with an equivalent volume of normal saline from freely moving rats. Collected blood was transferred into a labeled eppendr off containing 10 μL of heparin as anticoagulant. Typically blood samples were collected as following time points: Pre dose, 0.08 (only i.v.), 0.25, 0.5, 1, 2, 4, 6, 8, and 24 hours post dose-(n=3). Blood was centrifuged at 4000 rpm for 10 minutes. Plasma was prepared and stored frozen at −20° C. until analysis. The concentrations of the test compounds were quantified in plasma by qualified LC-MS/MS method using suitable extraction technique. The test compounds were quantified in the calibration range around 2-2000 ng/mL in plasma. Study samples were analyzed using calibration samples in the batch and quality control samples spread across the batch.
Pharmacokinetic parameters Cmax, Tmax, AUCt, T1/2 and Bioavailability were calculated by non-compartmental model using standard non-compartmental model by using WinNonLin 5.0.1 or Phoenix WinNonlin 6.2 version Software package.

Data set [5] in a line: Object recognition task model. It counts as in vivo, Male Wistar rats. The note with it: p.o. How it is done: The cognition enhancing properties of compounds of this invention were estimated by using this model.
Male Wistar rats (230-280 grams) were used as experimental animals. Four animals were housed in each cage. Animals were kept on 20% food deprivation before one day and given water ad libitum throughout the experiment and maintained on a 12 hours light/dark cycle. Also the rats were habituated to individual arenas for 1 hour in the absence of any objects.
One group of 12 rats received vehicle (1 mL/Kg) orally and another set of animals received compound of the formula (I) either orally or i.p., before one hour of the familiar (T1) and choice trial (T2).
The experiment was carried out in a 50×50×50 cm open field made up of acrylic. In the familiarization phase, (T1), the rats were placed individually in the open field for 3 minutes, in which two identical objects (plastic bottles, 12.5 cm height×5.5 cm diameter) covered in yellow masking tape alone (a1 and a2) were positioned in two adjacent corners, 10 cms from the walls. After 24 hours of the (T1) trial for long-term memory test, the same rats were placed in the same arena as they were placed in T1 trial. Choice phase (T2) rats were allowed to explore the open field for 3 minutes in presence of one familiar object (a3) and one novel object (b) (Amber color glass bottle, 12 cm high and 5 cm in diameter). Familiar objects presented similar textures, colors and sizes. During the T1 and T2 trial, explorations of each object (defined as sniffing, licking, chewing or having moving vibrissae whilst directing the nose towards the object at a distance of less than 1 cm) were recorded separately by stopwatch. Sitting on an object was not regarded as exploratory activity, however, it was rarely observed.
T1 is the total time spent exploring the familiar objects (a1+a2).
T2 is the total time spent exploring the familiar object and novel object (a3+b).
The object recognition test was performed as described by Behaviour Brain Research, 31 (1988), 47-59.

Data set [6] can be described thus: Radial arm maze. The following applies: p.o. Type of data set: in vivo, rats. The text has this: The cognition enhancing properties of test compounds of this invention were estimated by using this model.
Radial arm maze consists of a central hub of 45 cm diameter. Each arm was of dimension 42.5×15×24 cm. The maze was elevated to a height of 1 m above the ground. The animals were placed on a restricted diet until they reached approximately 85% of their free feeding weight. During this diet restriction period animals were habituated to the novel feed (pellets). Once the rats reached approximately 85% of their free feeding weight, rats were habituated to the maze on the 1st and 2nd day. […] Animals were randomized on day 2. On the subsequent days the treatment was given as per the allotment. Each animal was introduced into the maze individually for a period of 10 minutes. The arms were baited only once and the animal had to learn the rule that repeated arm entries would not be rewarded. The trial ended once the rat had visited 16 arms or 10 minutes were over or all the pellets were eaten. The arm entries were recorded using the software. Once the trial was over the rat was removed and the maze was cleaned using soap water.

Consider 5 compounds from patent publication US9957257B2, “Amide compounds as 5-HT4 receptor agonists” (SUVEN LIFE SCIENCES LIMITED, priority 2015, dated 2018).

The term IC50 denotes the concentration needed to halve the response being measured. Low readings indicate inhibition by little substance, high ones a need for much substance. Broadly, the EC50 is the concentration needed to bring the measured effect to its halfway point. By AUC(0-t) is commonly meant the area under the concentration-time curve up to a stated or last time point. Read a low AUC(0-t) as low exposure. Broadly, the half-life is the time needed for the level to fall by half in the phase considered. One may read the bioavailability as the share of a dose that reaches the circulation, judged against a reference dose that is usually intravenous. As a reminder, the Cmax is the maximum level reached in the sampled fluid or tissue. What is called Tmax is the time from dosing to the highest level.

The structures appear in SMILES notation.

T1 sequence (Q12809 whole entry): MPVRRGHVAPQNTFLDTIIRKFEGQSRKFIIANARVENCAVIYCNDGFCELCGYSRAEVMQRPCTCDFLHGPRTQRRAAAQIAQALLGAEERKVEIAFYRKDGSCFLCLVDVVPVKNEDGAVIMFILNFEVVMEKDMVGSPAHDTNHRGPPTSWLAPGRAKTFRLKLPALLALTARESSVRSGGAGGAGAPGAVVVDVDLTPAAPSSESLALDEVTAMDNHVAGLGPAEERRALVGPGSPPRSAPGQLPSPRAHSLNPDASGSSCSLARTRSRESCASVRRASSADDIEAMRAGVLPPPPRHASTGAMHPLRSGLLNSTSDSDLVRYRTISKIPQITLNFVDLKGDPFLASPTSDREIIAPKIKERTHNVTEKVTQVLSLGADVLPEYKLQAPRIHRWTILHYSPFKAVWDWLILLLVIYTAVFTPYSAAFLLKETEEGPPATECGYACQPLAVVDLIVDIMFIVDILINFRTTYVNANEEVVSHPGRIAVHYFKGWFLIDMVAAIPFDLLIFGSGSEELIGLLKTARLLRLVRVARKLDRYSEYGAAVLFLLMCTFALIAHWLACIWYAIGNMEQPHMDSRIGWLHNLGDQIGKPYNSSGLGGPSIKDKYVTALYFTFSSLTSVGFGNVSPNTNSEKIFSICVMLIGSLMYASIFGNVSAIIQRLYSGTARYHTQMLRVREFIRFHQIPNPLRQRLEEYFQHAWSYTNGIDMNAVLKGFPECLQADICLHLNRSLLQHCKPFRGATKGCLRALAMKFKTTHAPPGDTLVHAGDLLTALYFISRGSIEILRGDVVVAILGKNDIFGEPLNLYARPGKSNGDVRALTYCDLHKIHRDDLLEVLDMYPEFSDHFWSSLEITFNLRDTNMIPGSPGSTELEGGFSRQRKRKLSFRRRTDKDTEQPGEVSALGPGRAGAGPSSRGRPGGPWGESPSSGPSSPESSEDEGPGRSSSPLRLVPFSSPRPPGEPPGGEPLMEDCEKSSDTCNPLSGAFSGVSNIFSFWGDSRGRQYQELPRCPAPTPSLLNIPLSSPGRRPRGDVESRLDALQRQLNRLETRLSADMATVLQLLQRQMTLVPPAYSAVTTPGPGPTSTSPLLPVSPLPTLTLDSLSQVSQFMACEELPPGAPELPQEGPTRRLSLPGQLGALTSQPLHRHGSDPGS

Consider `Cc1cc2c(N)c(Cl)cc(C(=O)NCC3(F)CCN(CC(C)(C)O)CC3)c2o1.O=C(O)C(O)C(O)C(=O)O` [Example 53, 4-Amino-5-chloro-2-methyl-N-{[4-fluoro-1-(2-hydroxy-2-methylpropyl)-4-piperidinyl]methyl}benzofuran-7-carboxamide L(+)-tartarate], for which, in data set [1], the Kp stood at 2.53 ± 0.63. Further, the IC50 in data set [2] is > 10 µM. For the same compound, the EC50 in data set [3] was in the range of 10.1 to 20 nM. In addition, in data set [4] (1 mg/kg, intravenous (bolus)), the exposure AUC(0-t) is 147 ± 17 ng·h/mL and the half-life was 48 min. Besides, the bioavailability in data set [4] came out at 27 ± 20%. In data set [4] (3 mg/kg, oral (gavage)), the exposure AUC(0-t) stood at 250 ± 87 ng·h/mL, the maximum concentration (Cmax) was found to be 182 ± 26 ng/mL, the Tmax was 19.8 min and the half-life is 96 min. Moreover, in data set [5] (0.3 mg/kg), the “Exploration time mean ± S.E.M, Familiar object” value stood at 8.24 ± 1.32 s; the “Exploration time mean ± S.E.M, Novel object” value came out at 15.98 ± 1.75 s; the Inference entry is listed as “Active”.

Turning to `Nc1c(Cl)cc(C(=O)NCC2C3CN(CC4CCOCC4)CC23)c2c1CCCO2.O=C(O)C(O)C(O)C(=O)O` (stereo not drawn) [Example 3, 5-Amino-6-chloro-N-{[3-(tetrahydro-2H-pyran-4-ylmethyl)-3-azabicyclo[3.1.0]hex-6-yl]methyl}chroman-8-carboxamide L(+)-tartarate], in data set [1], the Kp is 1.03 ± 0.02. Further, the “Reversal of Scopolamine Induced amnesia - Effective dose range” value in data set [6] is reported as 0.03 mg/kg, p.o. Moreover, in data set [4] (1 mg/kg, intravenous (bolus)), the AUC(0-t) is 158 ± 7 ng·h/mL and the half-life was 114 min. Also, the bioavailability in data set [4] was found to be 68 ± 22%. Besides, in data set [4] (3 mg/kg, oral (gavage)), the exposure AUC(0-t) is 324 ± 105 ng·h/mL, the highest level (Cmax) was 131 ± 35 ng/mL, the time to peak (Tmax) was 25.2 min and the half-life was 96 min. In addition, in data set [5] (0.003 mg/kg), the “Exploration time mean ± S.E.M, Familiar object” value came out at 9.9 ± 2.06 s; the “Exploration time mean ± S.E.M, Novel object” value stood at 17.58 ± 2.24 s; the Inference entry is listed as “Active”.

On to `CC(C)(O)CN1CC2C(CNC(=O)c3cc(Cl)c(N)c4c3OCCC4)C2C1` (stereo not drawn) [Example 37, 5-Amino-6-chloro-N-{[3-(2-hydroxy-2-methylpropyl)-3-azabicyclo[3.1.0]hex-6-yl]methyl}chroman-8-carboxamide L(+)-tartarate], for which the IC50 in data set [2] was > 10 µM. The half-maximal effective concentration (EC50) in data set [3] is 1.1 to 5 nM.

With `CC(C)(O)CN1CCC(F)(CNC(=O)c2cc(Br)c(N)c3c2OCCC3)CC1.O=C(O)C(O)C(O)C(=O)O` [Example 48, 5-Amino-6-bromo-N-{[4-fluoro-1-(2-hydroxy-2-methylpropyl)-4-piperidinyl]methyl}chroman-8-carboxamide L(+)-tartarate], the Kp in data set [1] was 1 ± 0.16. In data set [4] (1 mg/kg, intravenous (bolus)), this compound gave an AUC(0-t) of 211 ± 41 ng·h/mL and a half-life of 90 min. Also, the bioavailability in data set [4] was 35 ± 5%. Besides, in data set [4] (3 mg/kg, oral (gavage)), the AUC(0-t) was found to be 224 ± 33 ng·h/mL, the highest level (Cmax) was 167 ± 20 ng/mL, the time to peak (Tmax) turned out to be 18.6 min and the half-life was 60 min. Further, in data set [5] (3 mg/kg), the “Exploration time mean ± S.E.M, Familiar object” value is 7.02 ± 0.76 s; the “Exploration time mean ± S.E.M, Novel object” value stood at 13.80 ± 1.74 s; the Inference result is listed as “Active”.

Consider `CC(C)(O)CN1CCC(F)(CNC(=O)c2cc(Cl)c(N)c3c2OCCC3)CC1.O=C(O)C(O)C(O)C(=O)O` [Example 44, 5-Amino-6-chloro-N-{[4-fluoro-1-(2-hydroxy-2-methylpropyl)-4-piperidinyl]methyl}chroman-8-carboxamide L(+)-tartarate], for which the Kp in data set [1] is 0.78 ± 0.06. In data set [2], the IC50 was > 10 µM. For the same compound, in data set [4] (1 mg/kg, intravenous (bolus)), the AUC(0-t) came out at 232 ± 14 ng·h/mL and the half-life was 90 min. The bioavailability in data set [4] worked out at 25 ± 1%. Besides, in data set [4] (3 mg/kg, oral (gavage)), the AUC(0-t) came out at 176 ± 10 ng·h/mL, the peak concentration (Cmax) turned out to be 110 ± 25 ng/mL, the Tmax was determined as 19.8 min and the half-life is 78 min. Besides, in data set [5] (3 mg/kg), the “Exploration time mean ± S.E.M, Familiar object” value is 5.44 ± 1.02 s; the “Exploration time mean ± S.E.M, Novel object” value stood at 14.64 ± 2.19 s; the Inference result is given as “Active”.
